The values below come from PMC8795197, “Safety and activity of WX-0593 (Iruplinalkib) in patients with ALK- or ROS1-rearranged advanced non-small cell lung cancer: a phase 1 dose-escalation and dose-expansion trial” (Signal Transduction and Targeted Therapy, 2022).

Like-named read-outs stand apart in the source and are kept apart here.

Usually IC50 stands for the midpoint of a concentration-inhibition curve.

One data set relates to Ba/F3 CD74-ROS1-S1986Y. The experiment in a line: Growth of transfected Ba/F3 cells (CellTiter-Glo, 3 days). It counts as cell-based. The note with it: Mus musculus, BaF3. On the procedure:
(§1) Harvest cells during the logarithmic growth period and count cells using blood counting chamber. Adjust cell concentration with culture medium. Add 90µl cell suspensions to two 96-well plates to the final cell density as described before. Incubate the plate overnight in humidified incubator at 37℃ with 5% CO2. Dispense 10µl drug solution (10×) to each well (triplicate for each concentration), and the DMSO final concentration in culture medium is 0.1% [v/v]. Culture the plates for 3 days.On Day 3, Read luminescent using Multi Label Reader. The software of GraphPad Prism was used to calculate IC50. The graphical curves were fitted using a nonlinear regression model with a sigmoidal dose response.
For orientation: Cellular ATP, detected with luciferase, serves as a proxy for viable cell number.

Another data set relates to Ba/F3 CD74-ROS1-S1986F. The description is as above. As to conditions: Mus musculus, BaF3. It counts as cell-based. As to the method:
as §1

The subject of a further data set is Ba/F3 CD74-ROS1-L1951R. The description is as above. It counts as cell-based. The note with it: Mus musculus, BaF3. On the procedure:
as §1

Another data set concerns Ba/F3 CD74-ROS1-D2033N. The data set is described as above. It counts as cell-based. As to conditions: Mus musculus, BaF3. On the procedure: as §1
The next data set concerns LU-01-0319R NSCLC PDX. The experiment in a line: PDX model resistant to crizotinib. It counts as in vivo. The note with it: WX-0593 2.5, 5, 10 mg/kg; ceritinib 10/20 mg/kg; brigatinib 10 mg/kg.
Data set [1] deals with Ba/F3 SLC34A2-ROS1-G2032R. The experiment in a line: Growth of transfected Ba/F3 cells (CellTiter-Glo, 3 days). It counts as cell-based. The note with it: Mus musculus, BaF3. As to the method: as §1
A further data set concerns Ba/F3 SLC34A2-ROS1. The data set is described as above. It counts as cell-based. As to conditions: Mus musculus, BaF3. On the procedure: as §1
Data set [2] has as its system Ba/F3 SLC34A2-ROS1-L2026M. The description is as above. It counts as cell-based. The note with it: Mus musculus, BaF3. As to the method:
as §1

In data set [3] the test system is patients treated with ALK TKIs. The note with it: cited from earlier work.
Another data set concerns Ba/F3 ALK-G1202R. The data set is described as follows: Growth of transfected Ba/F3 cells (CellTiter-Glo, 3 days). As to conditions: Mus musculus, BaF3. It counts as cell-based. On the procedure:
as §1, with “days. On” for “days.On”

The next data set relates to Ba/F3 ALK-L1152P. The description is as above. It counts as cell-based. The note with it: Mus musculus, BaF3. As to the method:
as §1, with “days. On” for “days.On”

In a further data set the test system is Ba/F3 ALK-T1151Tins. The data set is described as above. The note with it: Mus musculus, BaF3. It counts as cell-based. As to the method:
as §1, with “days. On” for “days.On”

The next data set deals with Ba/F3 ALK-G1202del. The description is as above. The note with it: Mus musculus, BaF3. It counts as cell-based. As to the method:
as §1, with “days. On” for “days.On”

Another data set has as its system Ba/F3 ALK-WT. The description is as above. It counts as cell-based. The note with it: Mus musculus, BaF3. On the procedure: as §1, with “days. On” for “days.On”
In another data set the test system is Ba/F3 ALK-F1174C. The data set is described as above. It counts as cell-based. On the procedure:
as §1, with “days. On” for “days.On”

For another data set, the system named is Ba/F3 ALK-I1171T. The description is as above. It counts as cell-based. The note with it: Mus musculus, BaF3. On the procedure: as §1, with “days. On” for “days.On”
The test system of the next data set is Ba/F3 ALK-L1152R. The data set is described as above. It counts as cell-based. The note with it: Mus musculus, BaF3. On the procedure:
as §1, with “days. On” for “days.On”

The next data set deals with Ba/F3 ALK-L1196M. The data set is described as above. It counts as cell-based. The note with it: Mus musculus, BaF3. As to the method: as §1, with “days. On” for “days.On”
In the next data set the test system is Ba/F3 ALK-C1156Y. The description is as above. It counts as cell-based. The note with it: Mus musculus, BaF3. On the procedure:
as §1, with “days. On” for “days.On”

The next data set relates to Ba/F3 ALK-F1174V. The data set is described as above. It counts as cell-based. As to conditions: Mus musculus, BaF3. As to the method:
as §1, with “days. On” for “days.On”

In a further data set the test system is Ba/F3 ALK-F1174L. The description is as above. It counts as cell-based. The note with it: Mus musculus, BaF3. On the procedure: as §1, with “days. On” for “days.On”
The test system of another data set is Ba/F3 ALK-V1180L. Described as above. It counts as cell-based. The note with it: Mus musculus, BaF3. As to the method: as §1, with “days. On” for “days.On”
Another data set has as its system Ba/F3 ALK-I1171S. The description is as above. It counts as cell-based. As to the method: as §1, with “days. On” for “days.On”
A further data set concerns Ba/F3 ALK-G1269A. Described as above. It counts as cell-based. As to conditions: Mus musculus, BaF3. As to the method:
as §1, with “days. On” for “days.On”

A further data set deals with Ba/F3 ALK-I1171N. The data set is described as above. It counts as cell-based. The note with it: Mus musculus, BaF3. As to the method: as §1, with “days. On” for “days.On”
For data set [4], the system named is NSCLC patients with ALK or ROS1 rearrangement. As to conditions: cited from earlier work.

In the case of `CCc1cc2c(cc1N1CCC(N3CCOCC3)CC1)C(C)(C)c1[nH]c3cc(C#N)ccc3c1C2=O` [Alectinib], the IC50 is 10000 nM in the data set with Ba/F3 CD74-ROS1-S1986Y, 10000 nM in the data set on Ba/F3 CD74-ROS1-S1986F, 5410 nM in the data set on Ba/F3 CD74-ROS1-L1951R and 5070 nM with Ba/F3 CD74-ROS1-D2033N.

On to `C[C@@H](Oc1cc(-c2cnn(C3CCNCC3)c2)cnc1N)c1c(Cl)ccc(F)c1Cl` [Crizotinib], for which the anti-tumor effect entry in the data set on LU-01-0319R NSCLC PDX was “resistant”. Moreover, the half-maximal inhibitory concentration (IC50) amounted to […] in [1]; 8 nM in the data set with Ba/F3 SLC34A2-ROS1; 162 nM in data set [2]; […] in the data set with Ba/F3 CD74-ROS1-L1951R; […] in the data set on Ba/F3 CD74-ROS1-D2033N.

In the case of `C[C@@H]1CN(C(=O)c2ccc(NC(=O)c3cc(O[C@H](C)c4c(Cl)ccc(F)c4Cl)c(N)nn3)cc2)C[C@H](C)N1` [Ensartinib], the “rash, % of patients” value in data set [3] is recorded as 56%. The 50% inhibitory concentration (IC50) with Ba/F3 CD74-ROS1-S1986Y was found to be 189 nM; in [1], 1640 nM; with Ba/F3 CD74-ROS1-S1986F, 192 nM; in the data set on Ba/F3 SLC34A2-ROS1, 49 nM; in data set [2] it was 278 nM; in the data set on Ba/F3 CD74-ROS1-L1951R, 970 nM. Besides, the IC50 was determined as 195 nM in the data set on Ba/F3 CD74-ROS1-D2033N; 409 nM with Ba/F3 ALK-G1202R (ALK-G1202R, read-out: IC50); 25.7 nM with Ba/F3 ALK-L1152P (ALK-L1152P, read-out: IC50); 42 nM with Ba/F3 ALK-T1151Tins (ALK-T1151Tins, read-out: IC50); 932 nM with Ba/F3 ALK-G1202del (ALK-G1202del, read-out: IC50); 14 nM in the data set on Ba/F3 ALK-WT (ALK-WT, read-out: IC50). Moreover, the IC50 in the data set on Ba/F3 ALK-F1174C (Mus musculus, BaF3, ALK-F1174C, first listing (r10), read-out: IC50) amounted to 62 nM; in the data set on Ba/F3 ALK-F1174C (Mus musculus, BaF3, ALK-F1174C, second listing (r15), read-out: IC50), 62.2 nM; in the data set with Ba/F3 ALK-I1171T (ALK-I1171T, read-out: IC50), 28 nM; in the data set with Ba/F3 ALK-L1152R (ALK-L1152R, read-out: IC50) it was 71.4 nM; with Ba/F3 ALK-L1196M (ALK-L1196M, read-out: IC50) it was 98 nM; in the data set on Ba/F3 ALK-C1156Y (ALK-C1156Y, read-out: IC50), 17 nM. For the same compound, the IC50 stood at 54.5 nM in the data set with Ba/F3 ALK-F1174V (ALK-F1174V, read-out: IC50); 29 nM in the data set with Ba/F3 ALK-F1174L (ALK-F1174L, read-out: IC50); 16.6 nM in the data set with Ba/F3 ALK-V1180L (ALK-V1180L, read-out: IC50); 39 nM in the data set with Ba/F3 ALK-I1171S (Mus musculus, BaF3, ALK-I1171S, first listing (r12), read-out: IC50); 41.5 nM in the data set with Ba/F3 ALK-I1171S (Mus musculus, BaF3, ALK-I1171S, second listing (r19), read-out: IC50); 212 nM in the data set on Ba/F3 ALK-G1269A (ALK-G1269A, read-out: IC50). Besides, the IC50 in the data set on Ba/F3 ALK-I1171N (ALK-I1171N, read-out: IC50) amounted to 18.4 nM. The ORR in data set [4] (ALK-rearranged patients) was 60%.

With `C[C@H]1Oc2cc(cnc2N)-c2c(nn(C)c2C#N)CN(C)C(=O)c2ccc(F)cc21` [Lorlatinib], the concentration for half-maximal inhibition (IC50) with Ba/F3 CD74-ROS1-S1986Y was 1.5 nM; in data set [1] it was 197 nM; in the data set with Ba/F3 CD74-ROS1-S1986F, 1.1 nM; in the data set on Ba/F3 SLC34A2-ROS1 it was < 1 nM; in data set [2], < 1 nM; with Ba/F3 CD74-ROS1-L1951R it was 5.1 nM. Further, the IC50 came to 1.7 nM in the data set with Ba/F3 CD74-ROS1-D2033N; 26 nM in the data set with Ba/F3 ALK-G1202R; 4.6 nM in the data set with Ba/F3 ALK-L1152P; 7 nM with Ba/F3 ALK-T1151Tins; 215 nM in the data set with Ba/F3 ALK-G1202del; 4 nM in the data set with Ba/F3 ALK-WT. In addition, the IC50 in the data set on Ba/F3 ALK-F1174C came out at 15.9 nM; in the data set on Ba/F3 ALK-F1174C (Mus musculus, BaF3) it was 11 nM; in the data set on Ba/F3 ALK-I1171T it was 19 nM; in the data set with Ba/F3 ALK-L1152R, 17.4 nM; with Ba/F3 ALK-L1196M, 54 nM; in the data set on Ba/F3 ALK-C1156Y, 4 nM. The IC50 with Ba/F3 ALK-F1174V is 16.1 nM; in the data set with Ba/F3 ALK-F1174L it was 4 nM; in the data set on Ba/F3 ALK-V1180L, 5.2 nM; in the data set with Ba/F3 ALK-I1171S, 52.8 nM; in the data set on Ba/F3 ALK-I1171S (Mus musculus, BaF3) it was 33 nM; in the data set on Ba/F3 ALK-G1269A, 35 nM. For the same compound, in the data set with Ba/F3 ALK-I1171N, the IC50 was 41.1 nM. Besides, the ORR in data set [4] (ALK TKI-naive patients with ROS1 rearrangement) was 62%; in data set [4] (ROS1 rearrangement, crizotinib as the only TKI) it was 35%.
